# Source: patent US7759377B2, “Acylaminothiazole derivatives and use thereof as beta-amyloid inhibitors” (Sanofi-Aventis, priority 2004, dated 2010)
# Molecular target: T1, gamma-secretase (Homo sapiens, UniProt P49768, M146L)
# T1 construct: expressed in transfected cells; host or cells: CHO-K1, clone 30-12
# Assay: β-amyloid cellular test: inhibition of production of β-A4 peptide, ELISA of cellular supernatants
# Format: cell-based
# Details: CHO-K1 line coexpressing CT100 of APP and PS1 M146L clone 30-12; 24-25 h incubation; secreted amyloid peptide by ELISA
# Excerpt: For the β-amyloid cellular test, the CHO—K1 line coexpressing the CT100 of APP and PS1 M146L clone 30-12 is used. The line targets the inhibition of gamma-secretase. Presenilin is linked to gamma-secretase activity (Wolfe M S, Haass C., The Role of presenilins in gamma-secretase activity, J. Biol. Chem. 2001, 276(8): 5413-6) and its coexpression with the amyloid protein or its N-terminal fragment causes an increase in secretion of the peptide A1-42 (β-A4), thereby generating a pharmacological tool which allows inhibition by the compounds of formula (I) of the production of the β-A4 peptide to be evaluated. 96-well culture plates are inoculated with 1×10^5 cells per well in 150 μl of incubation medium. The presence of a minimum percentage (1.3% final) of serum allows cellular adhesion to the plastic after 2-3 hours of incubation at 37° C., in the presence of 5% CO2. The products (15 μl) are tested at 10 μM DMSO 1% final and are incubated for 24-25 h at 37° C. in the presence of 5% CO2 and 100% humidity. After this 24-25 h incubation, the cellular supernatants (100 μl) are transferred to ELISA plates, treated with the capture antibody 6E10 (6E10, epitope: aa1-17, INTERCHIM/SENETEK 320/10), to determine the amount of amyloid peptides secreted by the cells in the presence of compounds according to the invention. A series of synthetic control peptide, “peptide 1-40”, at 5 and 10 ng/ml is treated in parallel. The ELISA plates are incubated overnight at 4° C.
# The quantity of bound peptide is detected indirectly in the presence of a competitor which corresponds to the truncated peptide, peptide 1-28 coupled to biotin, which is then detected with streptavidin coupled to alkaline phosphatase. The substrate, p-nitrophenyl phosphate (pNPP FAST p-Nitrophenyl Phosphate, Sigma N2770), gives a yellow, soluble reaction product which can be read at 405 nm. The reaction is stopped with 0.1 M EDTA solution. For this purpose, following binding of the amyloid peptide in the ELISA plate, 50 μl of biotinylated peptide 1-28 are added to 100 μl of cellular supernatant and incubated for 30 minutes at ambient temperature. The ELISA plates are then washed 3 times. After drying by inversion on absorbent paper, 100 μl of streptavidin-alkaline phosphatase (Interchim/Jackson ImmunoResearch Laboratories 016-050-084) are added per well and incubated for 1 hour at ambient temperature. The plates are washed again and then the alkaline phosphatase substrate (pNPP 1 mg/ml) is added in an amount of 100 μl per well. After 30 minutes of incubation at ambient temperature the reaction is stopped by adding 100 μl per well of 0.1 M EDTA and reading is carried out at 405 nm.
row,EC50 [nM],Structure (SMILES)
1,52,CCC[C@H](NC(=O)[C@@H](O)C(C)(C)C)C(=O)Nc1nc(-c2nc(-c3ccccc3)no2)c(C(C)C)s1 [Compound 7]
2,42,"CCC[C@H](NC(=O)[C@@H](O)C(C)(C)C)C(=O)Nc1nc(-c2nc3ccccc3o2)c(C(C)C)s1 [Compound 34, 2-{2-(S)-[2-(S)-hydroxy(3,3-dimethyl)butyrylamino]pentanoyl}amino-5-(1-methylethyl)-4-(1,3-benzoxazol-2-yl)thiazole]"
3,85,CCCC(NC(=O)C(O)c1cc(F)cc(F)c1)C(=O)Nc1nc(C)c(-c2nc(C)no2)s1 (stereo not shown) [Compound 40]
4,94,"CCC[C@H](NC(=O)[C@@H](O)C(C)(C)C)C(=O)Nc1ncc(-c2nnnn2Cc2ccccc2)s1 [Compound 51, 2-{2-(S)-[2-(S)-hydroxy(3,3-dimethyl)butyrylamino]pentanoyl}amino-5-(1-benzyl-1H-tetrazol-5-yl)thiazole]"
